Laboratory results from ChEMBL document CHEMBL1201862, “PubChem BioAssay data set” (2004).
The source made the active and inactive calls.

Assays:
HEK293 [1] = test: inhibitors of LMP1-driven NF-kB reporter, dose response, cell-based, HEK293, luciferase, cherry-pick (AID 588343); format: functional; details: Homo sapiens
[2] = biological target: Latent membrane protein 1 (Human herpesvirus 4 (strain B95-8), UniProt P03230); test: TES1-eGFP NF-kB reporter inhibition versus Tet-On dsRED, dose response, selectivity assay for LMP1 NF-kB inhibitor project, imaging, HEK293T, dual-color eGFP/dsRED, cherry-picks (AID 588398); format: functional, cell-based
[3] = biological target: T1, Corticotropin-releasing factor receptor 2/Corticotropin-releasing factor-binding protein (Homo sapiens, UniProt P24387+Q13324); test: Dose Response confirmation of uHTS hits for small molecule antagonists of the CRF-binding protein and CRF-R2 receptor complex.; format: functional; details: read-out: IC50_Mean
T1 sequence (Q13324 whole entry): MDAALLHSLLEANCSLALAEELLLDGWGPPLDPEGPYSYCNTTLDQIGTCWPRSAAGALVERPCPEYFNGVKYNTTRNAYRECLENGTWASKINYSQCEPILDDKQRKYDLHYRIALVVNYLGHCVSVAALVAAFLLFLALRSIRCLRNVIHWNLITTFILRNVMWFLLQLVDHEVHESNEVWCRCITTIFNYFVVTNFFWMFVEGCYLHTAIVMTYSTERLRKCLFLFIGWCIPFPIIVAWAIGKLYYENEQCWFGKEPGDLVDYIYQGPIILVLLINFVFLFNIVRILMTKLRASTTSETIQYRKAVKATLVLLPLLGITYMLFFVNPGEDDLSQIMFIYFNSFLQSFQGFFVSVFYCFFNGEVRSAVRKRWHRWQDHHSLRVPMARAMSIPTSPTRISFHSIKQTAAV
T1 sequence (P24387 whole entry): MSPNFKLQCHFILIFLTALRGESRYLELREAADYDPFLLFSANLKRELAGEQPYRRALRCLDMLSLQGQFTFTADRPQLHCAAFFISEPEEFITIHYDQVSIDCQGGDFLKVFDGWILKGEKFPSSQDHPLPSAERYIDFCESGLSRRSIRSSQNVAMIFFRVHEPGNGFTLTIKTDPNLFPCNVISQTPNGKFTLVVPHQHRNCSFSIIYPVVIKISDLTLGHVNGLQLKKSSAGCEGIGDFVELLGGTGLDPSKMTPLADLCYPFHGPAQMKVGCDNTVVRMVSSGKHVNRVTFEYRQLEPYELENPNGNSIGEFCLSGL

[4] = biological target: T1, Corticotropin-releasing factor receptor 2/Corticotropin-releasing factor-binding protein; test: activators of CRF receptor 2 with binding protein – uHTS hits, confirmation (AID 602473); format: functional; details: read-out: EC50_Mean
[5] = CRF-BP/CRF-R2 complex antagonists, dose response, cell-based, uHTS hits, 384-well (AID 651639); format: functional, Homo sapiens; details: read-out: IC50_Mean
[6] = biological target: T2, Sentrin-specific protease 8 (Homo sapiens, UniProt Q96LD8); test: SENP8 protease inhibitors, SAR follow-up, biochemical, luminescence (AID 504501); format: functional
T2 sequence (Q96LD8 whole entry): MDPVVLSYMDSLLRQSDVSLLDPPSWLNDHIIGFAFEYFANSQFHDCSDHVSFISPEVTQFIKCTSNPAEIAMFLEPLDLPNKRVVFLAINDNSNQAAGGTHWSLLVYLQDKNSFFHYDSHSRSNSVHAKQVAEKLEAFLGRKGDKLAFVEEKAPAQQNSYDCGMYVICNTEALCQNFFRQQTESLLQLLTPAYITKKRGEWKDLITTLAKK

Caspase-3 = biological target: T3, Caspase-3 (Homo sapiens, UniProt P42574); test: SAR Analysis of small molecule inhibitors of Sentrin-specific proteases (SENPs) using a Caspase-3 Selectivity assay. [Related pubchem assays (depositor defined):AID2540, AID2599, AID434973, AID489001]; format: functional
T3 sequence (P42574 whole entry): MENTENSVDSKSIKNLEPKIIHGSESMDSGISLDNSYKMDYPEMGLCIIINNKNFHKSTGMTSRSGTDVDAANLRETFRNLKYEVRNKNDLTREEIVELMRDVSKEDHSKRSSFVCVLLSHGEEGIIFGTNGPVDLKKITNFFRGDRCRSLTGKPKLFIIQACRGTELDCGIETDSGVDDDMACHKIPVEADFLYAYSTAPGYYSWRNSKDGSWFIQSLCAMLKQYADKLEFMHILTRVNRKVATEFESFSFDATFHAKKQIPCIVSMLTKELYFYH

[7] = biological target: T4, Sentrin-specific protease 6 (Homo sapiens, UniProt Q9GZR1); test: SAR Analysis of small molecule inhibitors of Sentrin-specific protease 6 (SENP6) using a Luminescent assay. [Related pubchem assays (depositor defined):AID2582, AID2599]; format: functional
T4 sequence (Q9GZR1 whole entry): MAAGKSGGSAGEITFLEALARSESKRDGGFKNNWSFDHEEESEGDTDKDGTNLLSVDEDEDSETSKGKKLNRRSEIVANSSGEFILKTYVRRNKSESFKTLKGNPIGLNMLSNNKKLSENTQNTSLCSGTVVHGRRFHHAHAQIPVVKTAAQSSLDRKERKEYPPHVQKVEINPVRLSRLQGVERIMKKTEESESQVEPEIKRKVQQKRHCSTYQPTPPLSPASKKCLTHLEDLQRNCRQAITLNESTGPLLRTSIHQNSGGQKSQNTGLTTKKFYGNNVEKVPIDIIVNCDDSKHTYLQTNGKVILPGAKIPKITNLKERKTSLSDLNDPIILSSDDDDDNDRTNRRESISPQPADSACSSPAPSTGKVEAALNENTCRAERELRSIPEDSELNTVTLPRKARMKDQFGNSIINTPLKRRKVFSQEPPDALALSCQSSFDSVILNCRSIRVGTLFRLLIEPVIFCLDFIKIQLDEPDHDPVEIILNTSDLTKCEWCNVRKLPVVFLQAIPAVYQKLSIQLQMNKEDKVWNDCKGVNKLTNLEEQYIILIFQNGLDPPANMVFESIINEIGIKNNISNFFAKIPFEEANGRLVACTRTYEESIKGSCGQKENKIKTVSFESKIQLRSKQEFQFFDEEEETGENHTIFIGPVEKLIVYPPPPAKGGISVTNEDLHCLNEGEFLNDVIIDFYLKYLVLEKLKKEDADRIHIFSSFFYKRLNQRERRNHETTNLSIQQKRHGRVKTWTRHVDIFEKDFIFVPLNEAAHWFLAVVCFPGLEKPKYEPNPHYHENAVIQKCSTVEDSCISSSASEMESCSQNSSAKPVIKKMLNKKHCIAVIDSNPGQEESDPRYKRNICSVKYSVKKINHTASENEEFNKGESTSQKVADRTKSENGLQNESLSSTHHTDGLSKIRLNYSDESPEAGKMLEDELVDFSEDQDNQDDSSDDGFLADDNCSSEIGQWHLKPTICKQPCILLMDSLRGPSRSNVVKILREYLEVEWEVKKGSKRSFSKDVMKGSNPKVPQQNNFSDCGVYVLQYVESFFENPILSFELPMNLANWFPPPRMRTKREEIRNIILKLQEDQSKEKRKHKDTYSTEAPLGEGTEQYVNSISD

[8] = biological target: T5, Sentrin-specific protease 7 (Homo sapiens, UniProt Q9BQF6); test: SENP7 protease inhibitors, SAR follow-up, biochemical, luminescence (AID 504497); format: functional
T5 sequence (Q9BQF6 whole entry): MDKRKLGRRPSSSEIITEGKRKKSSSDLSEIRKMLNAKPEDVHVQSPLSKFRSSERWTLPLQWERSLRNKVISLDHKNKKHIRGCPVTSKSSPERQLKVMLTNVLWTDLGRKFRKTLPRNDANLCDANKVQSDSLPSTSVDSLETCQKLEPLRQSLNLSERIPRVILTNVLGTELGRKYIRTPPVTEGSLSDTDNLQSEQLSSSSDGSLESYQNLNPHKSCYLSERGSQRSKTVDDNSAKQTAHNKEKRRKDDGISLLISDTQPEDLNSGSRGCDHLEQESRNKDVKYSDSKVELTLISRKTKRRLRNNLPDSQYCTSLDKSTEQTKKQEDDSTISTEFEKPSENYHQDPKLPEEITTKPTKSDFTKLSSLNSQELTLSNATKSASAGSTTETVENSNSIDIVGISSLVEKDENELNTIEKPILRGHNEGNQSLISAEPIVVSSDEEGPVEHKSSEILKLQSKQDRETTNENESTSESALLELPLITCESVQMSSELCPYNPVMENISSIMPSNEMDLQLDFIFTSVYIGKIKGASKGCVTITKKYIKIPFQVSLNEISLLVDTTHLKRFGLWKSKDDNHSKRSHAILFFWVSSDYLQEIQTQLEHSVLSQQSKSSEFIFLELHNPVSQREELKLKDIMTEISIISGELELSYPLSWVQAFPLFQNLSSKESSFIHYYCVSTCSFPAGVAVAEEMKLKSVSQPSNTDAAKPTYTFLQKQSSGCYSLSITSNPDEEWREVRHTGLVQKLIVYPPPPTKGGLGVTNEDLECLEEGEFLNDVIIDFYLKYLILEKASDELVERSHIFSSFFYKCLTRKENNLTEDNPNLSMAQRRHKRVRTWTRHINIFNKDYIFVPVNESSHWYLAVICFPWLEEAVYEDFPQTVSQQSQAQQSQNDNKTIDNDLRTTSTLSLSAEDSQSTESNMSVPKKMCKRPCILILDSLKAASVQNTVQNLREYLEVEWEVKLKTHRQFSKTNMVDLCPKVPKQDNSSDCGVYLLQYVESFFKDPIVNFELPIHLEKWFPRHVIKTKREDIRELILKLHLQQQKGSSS

Insulin-degrading enzyme [9] = biological target: T6, Insulin-degrading enzyme (Homo sapiens, UniProt P14735); test: activators of recombinant IDE enzyme, dose response, counter-screen for IDE activator project, biochemical, fluorescence polarization (AID 588681)
T6 sequence (P14735 whole entry): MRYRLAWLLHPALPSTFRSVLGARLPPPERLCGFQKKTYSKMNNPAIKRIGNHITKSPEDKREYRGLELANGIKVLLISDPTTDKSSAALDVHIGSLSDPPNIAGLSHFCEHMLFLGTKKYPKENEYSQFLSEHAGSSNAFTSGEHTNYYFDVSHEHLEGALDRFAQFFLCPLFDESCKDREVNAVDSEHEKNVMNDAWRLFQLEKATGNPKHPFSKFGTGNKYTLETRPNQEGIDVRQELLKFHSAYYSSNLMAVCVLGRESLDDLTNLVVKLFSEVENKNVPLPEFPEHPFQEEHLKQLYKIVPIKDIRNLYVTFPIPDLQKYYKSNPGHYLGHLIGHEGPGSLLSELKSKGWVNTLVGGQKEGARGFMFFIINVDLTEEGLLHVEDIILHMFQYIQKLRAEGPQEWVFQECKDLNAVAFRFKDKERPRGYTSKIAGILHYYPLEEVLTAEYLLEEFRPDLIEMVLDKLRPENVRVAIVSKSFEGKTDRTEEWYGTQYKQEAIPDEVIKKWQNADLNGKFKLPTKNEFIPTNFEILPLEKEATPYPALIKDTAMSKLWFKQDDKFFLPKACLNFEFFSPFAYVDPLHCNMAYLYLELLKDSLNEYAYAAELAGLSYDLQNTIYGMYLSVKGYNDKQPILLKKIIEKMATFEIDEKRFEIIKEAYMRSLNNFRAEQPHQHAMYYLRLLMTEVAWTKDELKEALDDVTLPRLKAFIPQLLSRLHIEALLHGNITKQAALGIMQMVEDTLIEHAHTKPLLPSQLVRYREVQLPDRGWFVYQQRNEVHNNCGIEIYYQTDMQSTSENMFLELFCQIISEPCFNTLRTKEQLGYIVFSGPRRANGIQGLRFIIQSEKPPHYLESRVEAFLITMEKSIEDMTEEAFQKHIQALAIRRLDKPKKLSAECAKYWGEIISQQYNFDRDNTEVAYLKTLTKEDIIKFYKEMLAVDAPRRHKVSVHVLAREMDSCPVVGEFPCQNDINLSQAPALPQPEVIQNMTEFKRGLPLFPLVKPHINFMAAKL

Insulin-degrading enzyme [10] = biological target: T6, Insulin-degrading enzyme; test: activators of endogenous IDE in HEK cells, dose response, cell-based, fluorescence polarization (AID 588439); format: functional
HEK293 [11] = test: HEK cell cytotoxicity by LDH release, dose response, cytotoxicity control for IDE activator project, fluorescence, HEK cells (AID 588440); format: functional, cell-based; details: Homo sapiens;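 also: cytotoxicity by LDH release measuring loss of membrane integrity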
HEK293 [12] = test: optical interference in Abeta FP readout, dose response, artefact control for IDE activator project, biochemical, fluorescence polarization (AID 588442); format: functional, cell-based; details: Homo sapiens

Chain of Latent membrane protein 1 (P03230 whole entry): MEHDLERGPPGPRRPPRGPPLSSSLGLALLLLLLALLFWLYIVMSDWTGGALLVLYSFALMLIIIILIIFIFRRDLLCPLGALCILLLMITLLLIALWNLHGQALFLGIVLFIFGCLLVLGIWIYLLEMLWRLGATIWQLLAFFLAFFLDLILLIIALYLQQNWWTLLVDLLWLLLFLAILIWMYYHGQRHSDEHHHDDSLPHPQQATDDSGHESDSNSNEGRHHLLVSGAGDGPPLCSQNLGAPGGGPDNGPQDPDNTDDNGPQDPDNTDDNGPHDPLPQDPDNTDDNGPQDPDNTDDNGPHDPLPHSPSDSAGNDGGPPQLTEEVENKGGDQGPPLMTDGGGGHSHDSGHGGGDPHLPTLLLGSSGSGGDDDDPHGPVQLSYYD

CC(C)c1cc(NC(=O)c2ccccc2)cc(C(C)C)c1O
AC50 (HEK293 [1]): 98.1 µM (active)
AC50 [2]: 30 µM (active)
IC50 [3]: < 0.368 µM (active)
EC50 [4]: > 53 µM (inactive)
IC50 [5]: 5.7 µM (active)

NC(=O)c1ccc(OC2CSC2)cc1
IC50 [6]: 7.5 µM (active)
IC50 (Caspase-3): > 99 µM (inactive)
IC50 [7]: 18.7 µM (active)
IC50 [8]: > 99 µM (inactive)

O=C(Cc1cccc(C(F)(F)F)c1)N(c1ccccc1)c1nc(-c2ccccc2)ns1
IC50 [6]: > 99 µM (inactive)
IC50 (Caspase-3): > 99 µM (inactive)
IC50 [7]: > 99 µM (inactive)
IC50 [8]: > 99 µM (inactive)

C[C@@H]1O[C@@H](O[C@H]2[C@H](O[C@H]3C[C@]4(C)[C@H](CC(O)C5[C@@H]([C@]6(C)CC[C@@H](C(C)(C)O)O6)CC[C@]54C)[C@@]4(C)CC[C@H](O)C(C)(C)C34)O[C@H](CO)[C@@H](O)[C@@H]2O)[C@H](O)[C@H](O)[C@H]1O (some centres not stated)
EC50 (Insulin-degrading enzyme [9]): > 54.7 µM (inactive)
EC50 (Insulin-degrading enzyme [10]): > 54.7 µM (inactive)
IC50 (HEK293 [11]): > 89.2 µM (inactive)
EC50 (HEK293 [12]): > 54.7 µM (inactive)
